According to patent US6518243B1, “Desleucyl glycopeptide antibiotics and methods of making same” (Trustees of Princeton University, priority 1999, dated 2003):

Legend:
S. aureus (ATCC 29213) = test: Zone of inhibition screen, 96 well agar array format; type: cell-based; design: scale not given here
Procedure, shortened: (§1)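 Antibacterial testing on a 96-well agar array; each compound screened separately.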

E. faecalis (CL 4877) = test: as above; type: cell-based; design: scale not given here
Procedure, shortened: as §1

[1] = zone of inhibition relative to 1 mg/ml stock solution of p-chlorobiphenylvancomycin
[2] = zone of inhibition relative to 1 mg/ml p-chlorobiphenylvancomycin

Row | Compound | zone score, S. aureus ATCC 29213 (S. aureus (ATCC 29213); [1]) | zone score, E. faecalis CL 4877 (E. faecalis (CL 4877); [1]) | zone score, S. aureus ATCC 29213 (S. aureus (ATCC 29213); [2]) | zone score, E. faecalis CL 4877 (E. faecalis (CL 4877); [2])
1 | CC1OC(OC2C(Oc3c4cc5cc3Oc3ccc(cc3Cl)[C@@H](O)[C@@H](NC(=O)[C@@H](CCCNC(=N)N)NC(N)=O)C(=O)N[C@@H](CC(N)=O)C(=O)N[C@H]5C(=O)NC3C(=O)N[C@H](C(=O)N[C@@H](C(=O)O)c5cc(O)cc(O)c5-c5cc3ccc5O)[C@H](O)c3ccc(c(Cl)c3)O4)OC(CO)C(O)C2O)CC(C)(NCc2ccc(-c3ccc(Cl)cc3)cc2)C1O (stereo partly drawn) [Compound 187] | 2 | 2 |  | 
2 | CC1OC(OC2C(Oc3c4cc5cc3Oc3ccc(cc3Cl)C(O)C3NC(=O)C(NC(=O)C5NC(=O)C(CC(N)=O)NC(=O)C(NC(=O)c5cc(C(F)(F)F)cc(C(F)(F)F)c5)C(O)c5ccc(c(Cl)c5)O4)c4ccc(O)c(c4)-c4c(O)cc(O)cc4C(C(=O)O)NC3=O)OC(CO)C(O)C2O)CC(C)(NCc2ccc(-c3ccc(Cl)cc3)cc2)C1O (stereo not drawn) [Compound 254] |  |  | 2 | 2
3 | CC1OC(OC2C(Oc3c4cc5cc3Oc3ccc(cc3Cl)C(O)C3NC(=O)C(NC(=O)C5NC(=O)C(CC(N)=O)NC(=O)C(NC(=O)c5cccnc5Sc5ccc(Cl)cc5)C(O)c5ccc(c(Cl)c5)O4)c4ccc(O)c(c4)-c4c(O)cc(O)cc4C(C(=O)O)NC3=O)OC(CO)C(O)C2O)CC(C)(NCc2ccc(-c3ccc(Cl)cc3)cc2)C1O (stereo not drawn) [Compound 230] |  |  | 2 | 2
4 | CC1OC(OC2C(Oc3c4cc5cc3Oc3ccc(cc3Cl)C(O)C3NC(=O)C(NC(=O)C5NC(=O)C(CC(N)=O)NC(=O)C(NC(=O)C(N)CC(=O)OC(C)(C)C)C(O)c5ccc(c(Cl)c5)O4)c4ccc(O)c(c4)-c4c(O)cc(O)cc4C(C(=O)O)NC3=O)OC(CO)C(O)C2O)CC(C)(NCc2ccc(-c3ccc(Cl)cc3)cc2)C1O (stereo not drawn) [Compound 3] | 2 | 2 |  | 
5 | CC1OC(OC2C(Oc3c4cc5cc3Oc3ccc(cc3Cl)C(O)C3NC(=O)C(NC(=O)C5NC(=O)C(CC(N)=O)NC(=O)C(NC(=O)CCC=O)C(O)c5ccc(c(Cl)c5)O4)c4ccc(O)c(c4)-c4c(O)cc(O)cc4C(C(=O)O)NC3=O)OC(CO)C(O)C2O)CC(C)(NCc2ccc(-c3ccc(Cl)cc3)cc2)C1O (stereo not drawn) [Compound 204] |  |  | 2 | 2
6 | CC1OC(OC2C(Oc3c4cc5cc3Oc3ccc(cc3Cl)C(O)C(NC(=O)C(O)C(O)C(O)C(O)CO)C(=O)NC(CC(N)=O)C(=O)NC5C(=O)NC3C(=O)NC(C(=O)NC(C(=O)O)c5cc(O)cc(O)c5-c5cc3ccc5O)C(O)c3ccc(c(Cl)c3)O4)OC(CO)C(O)C2O)CC(C)(NCc2ccc(-c3ccc(Cl)cc3)cc2)C1O (stereo not drawn) [Compound 157] | 2 | 2 |  | 
7 | CC1OC(OC2C(Oc3c4cc5cc3Oc3ccc(cc3Cl)C(O)C3NC(=O)C(NC(=O)C5NC(=O)C(CC(N)=O)NC(=O)C(NC(=O)CCNC(N)=O)C(O)c5ccc(c(Cl)c5)O4)c4ccc(O)c(c4)-c4c(O)cc(O)cc4C(C(=O)O)NC3=O)OC(CO)C(O)C2O)CC(C)(NCc2ccc(-c3ccc(Cl)cc3)cc2)C1O (stereo not drawn) [Compound 221] |  |  | 2 | 2
8 | CC=C(N)C(=O)NC1C(=O)NC(CC(N)=O)C(=O)NC2C(=O)NC3C(=O)NC(C(=O)NC(C(=O)O)c4cc(O)cc(O)c4-c4cc3ccc4O)C(O)c3ccc(c(Cl)c3)Oc3cc2cc(c3OC2OC(CO)C(O)C(O)C2OC2CC(C)(NCc3ccc(-c4ccc(Cl)cc4)cc3)C(O)C(C)O2)Oc2ccc(cc2Cl)C1O (stereo not drawn) [Compound 219] |  |  | 2 | 2
9 | CC1OC(OC2C(Oc3c4cc5cc3Oc3ccc(cc3Cl)C(O)C3NC(=O)C(NC(=O)C5NC(=O)C(CC(N)=O)NC(=O)C(NC(=O)CNC(=O)CNC(=O)CNC(=O)OC(C)(C)C)C(O)c5ccc(c(Cl)c5)O4)c4ccc(O)c(c4)-c4c(O)cc(O)cc4C(C(=O)O)NC3=O)OC(CO)C(O)C2O)CC(C)(NCc2ccc(-c3ccc(Cl)cc3)cc2)C1O (stereo not drawn) [Compound 139] | 2 | 2 |  | 
